Reference: patent EP4324461A1, “(E)-N-CINAMOYLAMINOALKANOLES WITH MELANOGENESIS INHIBITORY ACTIVITY” (UNIWERSYTET JAGIELLONSKI, priority 2022, dated 2024)

What was measured:
Fibroblasts (BJ) = experiment: Safety, MTT test in fibroblasts; format: cell-based; conditions: 48 hours
Procedure: (§1) In order to test the safety of the compounds, both normal human cells were used: keratinocytes (HaCaT), fibroblasts (BJ), primary melanocytes that occur in the skin, as well as human cancer cells: the hepatocarcinoma line HepG2 and the neuroblastoma line SH-SY5Y, which are considered a model for the assessment of hepatocytotoxicity and neurocytotoxicity. The concentrations of the tested compounds in the range of 250-100 µM were used in the studies. The cell lines used in the research were purchased from the American Type Culture Collection (ATCC) and were cultured in media recommended by the manufacturer with the addition of FBS and antibiotics in an incubator ensuring appropriate culture conditions, i.e. humidity, temperature and CO2 concentration. Cells were seeded into multiwell plates and incubated with the test compounds for 48 hours. After this time, MTT and LDH tests were performed to assess cell viability. The MTT test is based on the ability to transform the substrate: [3-(4,5-dimethyl-2-thiazolyl)-2,5-diphenyl-2H-tetrazolium bromide into a colored product only by living cells. The absorbance at 570 nm, which corresponds to the absorption maximum for the product, is directly proportional to cell viability. The LDH test is based on testing the activity of the enzyme lactate dehydrogenase in the culture medium, which is released from cells as a result of damage to the cell membrane, e.g. as a result of cell death. Triton X-100 was used as a positive control in the test. The determination is colorimetric, the substrate is transformed by the released enzyme into a colored product, an increase in absorbance indicates a larger amount of the released enzyme, and thus confirms greater damage to cell membranes. Tables 7 and 8 present the results obtained, which correspond to the viability of cells incubated with the compounds in relation to the viability of cells constituting a control sample, i.e. incubated with the solvent (DMSO) at the same concentration as in the case of the groups tested in the MTT test or in relation to the results obtained for the Triton X-100 positive control in the LDH test. They indicate that the compounds are safe at the concentrations tested. Table 7. Viability of tested normal human cell lines: keratinocytes (HaCaT), fibroblasts (BJ) and primary melanocytes after incubation with the tested compounds - determination in the MTT test (% of solvent control ± SD) and LDH (percentage of positive control - Triton X-100.

Primary melanocytes = experiment: Safety, MTT test in primary melanocytes; format: cell-based; conditions: 48 hours
Procedure: as §1

[1] = system: Chinese hamster ovary cell line (CHO-K1); experiment: Cytotoxicity in CHO-K1 cells (MTT) before the micronucleus test; format: cell-based; conditions: 24 hours
Procedure: The assay was performed using a Chinese hamster ovary cell line (CHO-K1) purchased from the American Type Culture Collection (ATCC). The cells were cultured in F-12K medium with the addition of 10% fetal bovine serum (FBS) and antibiotics (streptomycin/penicillin) in an incubator at 37 °C and 5% CO2 concentration). Before the actual micronucleus test, a cytotoxicity assessment was performed to ensure that the actual test was performed only at safe concentrations. For this purpose, cells were transferred to 96-well plates and incubated with the tested compounds for 24 hours. After this time, the MTT test was performed and cell viability was assessed in comparison to the control group (cells cultured with DMSO at the same concentration as in the case of the tested samples).

[2] = system: Chinese hamster ovary cell line (CHO-K1); experiment: Genotoxicity in the micronucleus test in CHO-K1 cells; format: cell-based
S. typhimurium TA1535 = experiment: Ames microplate test, TA1535;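 further: bacteria exposed to compound 90 min at 37 °C, then kept 48 h at 37 °C with indicator medium in 384-well plates, scoring wells that turned yellow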
S. typhimurium TA98 = experiment: Ames microplate test, TA98; format: cell-based, Salmonella typhimurium;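 further: reference level is the mean solvent-control yellow wells plus SD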
Procedure: Bacteria were grown overnight in growth medium.
Table 9. Ames microplate test results.

[3] = system: human reconstructed epidermis model EpiDerm™; experiment: Extended skin irritation test in reconstructed human epidermis (EpiDerm), 2 and 7 days; format: cell-based; conditions: 1.0% in 50% PEG (10 µL)
Procedure: In order to perform extended skin irritation (safety) tests on the reconstructed human epidermis, the exposure time to the tested compounds was extended to 2 and 7 days in the human reconstructed epidermis model EpiDerm™ from MatTek. The epidermis was cultured according to the manufacturer's recommendations, using appropriate multi-well plates and culture media. Solutions of the tested compounds were applied to the epidermis using a positive displacement pipette and distributed using a sterile glass bulb headed Pasteur pipette. […] The epidermis was cultured in an incubator ensuring appropriate humidity, temperature (37 °C) and CO2 concentration (5%). The medium was replaced daily. After an appropriate incubation time, i.e. 2 days or 7 days, the epidermis was rinsed with sterile DPBS and incubated with MTT (Thiazolyl Blue Tetrazolium bromide) solution at 37 °C for 3 hours. After this time, a purple color of formazan was observed, correlated with tissue viability. […] Moreover, in the medium collected after the first 24 hours of EpiDerm epidermis culture, the level of interleukin 1α (Il-1α), which is a mediator of inflammation, was determined. Its level correlates with the unfavorable (irritating) effect of the tested substances on the epidermis. The level of IL-1α was determined using the Cayman Elisa test. […] Table 6. Viability results and results of interleukin 1α concentration measurement in the culture medium in the irritation test in the reconstructed human epidermis model EpiDerm.

Row | SMILES | Fibroblasts (BJ) MTT (Fibroblasts (BJ); 100 µM) | Fibroblasts (BJ) MTT (Fibroblasts (BJ); 150 µM) | Fibroblasts (BJ) MTT (Fibroblasts (BJ); 200 µM) | Fibroblasts (BJ) MTT (Fibroblasts (BJ); 250 µM) | Primary melanocytes MTT (Primary melanocytes; 100 µM) | Primary melanocytes MTT (Primary melanocytes; 150 µM) | Primary melanocytes MTT (Primary melanocytes; 200 µM) | Primary melanocytes MTT (Primary melanocytes; 250 µM) | % Viability [mean] ([1]; 100 µM) [%] | % Viability [mean] ([1]; 150 µM) [%] | % Viability [mean] ([1]; 200 µM) [%] | DB (dicentric bridges in 1000 binucleate cells) ([2]; 100 µM) | MN (number of micronuclei in 1000 binucleate cells) ([2]; 100 µM) | NB (nuclear buds in 1000 binucleate cells) ([2]; 100 µM) | NDI (nuclear division index) ([2]; 100 µM) | DB (dicentric bridges in 1000 binucleate cells) ([2]; 150 µM) | MN (number of micronuclei in 1000 binucleate cells) ([2]; 150 µM) | NB (nuclear buds in 1000 binucleate cells) ([2]; 150 µM) | NDI (nuclear division index) ([2]; 150 µM) | DB (dicentric bridges in 1000 binucleate cells) ([2]; 200 µM) | further results
1 | O=C(/C=C/c1ccc(Cl)cc1)NCCCO [H-330/21, (2E)-3-(4-chlorophenyl)-N-(3-hydroxypropyl)prop-2-enamide] | 100.54±5.01 % of solvent control | 94.85±3.51 % of solvent control | 85.52±3.08 % of solvent control | 76.51±1.80 % of solvent control | 101.42±2.21 % of solvent control | 97.02±4.49 % of solvent control | 93.78±2.29 % of solvent control | 90.27±2.25 % of solvent control |  |  |  |  |  |  |  |  |  |  |  |  | 
2 | Cc1ccc(/C=C/C(=O)NCCCCCO)cc1 [H-415/21, (2E)-N-(5-hydroxypentyl)-3-(4-methylphenyl)prop-2-enamide] | 102.12±2.71 % of solvent control | 101.92±2.88 % of solvent control | 96.13±3.64 % of solvent control | 92.86±4.30 % of solvent control | 103.27±1.88 % of solvent control | 99.89±2.43 % of solvent control | 94.81±2.92 % of solvent control | 87.64±1.44 % of solvent control | 102.2 | 102.8 | 87.2 | 1.5 ± 0.7 | 12.5 ± 0.7 | 5.0 ± 1.4 | 1.54 | 3.5 ± 2.1 | 12.0 ± 2.8 | 5.5 ± 2.1 | 1.50 | 2.5 ± 0.7 | MN (number of micronuclei in 1000 binucleate cells) ([2]; 200 µM): 11.5 ± 3.5; NB (nuclear buds in 1000 binucleate cells) ([2]; 200 µM): 6.0 ± 1.4; NDI (nuclear division index) ([2]; 200 µM): 1.52; Increase in the number of yellow wells compared to the reference level (S. typhimurium TA1535; 0.5 mM, without S9): 0.21; Increase in the number of yellow wells compared to the reference level (S. typhimurium TA1535; 1.0 mM, without S9): 0.41; Increase in the number of yellow wells compared to the reference level (S. typhimurium TA1535; 2.0 mM, without S9): 0.10; Increase in the number of yellow wells compared to the reference level (S. typhimurium TA98; 0.5 mM, without S9): 0.47; Increase in the number of yellow wells compared to the reference level (S. typhimurium TA98; 1.0 mM, without S9): 0.24; Increase in the number of yellow wells compared to the reference level (S. typhimurium TA98; 2.0 mM, without S9): 0.35
3 | O=C(/C=C/c1ccccc1)NCCCCCCO [H-425/21, (E)-N-(6-hydroxyhexyl)cinnamic acid amide] |  |  |  |  |  |  |  |  | 87.6 | 83.8 | 88.0 | 2.5 ± 0.7 | 11.0 ± 4.2 | 3.5 ± 0.7 | 1.56 | 2.5 ± 2.1 | 11.5 ± 0.7 | 3.5 ± 0.7 | 1.52 | 4.5 ± 3.5 | MN (number of micronuclei in 1000 binucleate cells) ([2]; 200 µM): 12.5 ± 6.4; NB (nuclear buds in 1000 binucleate cells) ([2]; 200 µM): 5.5 ± 0.7; NDI (nuclear division index) ([2]; 200 µM): 1.60; Il-1α in culture medium ([3]; medium after the first 24 hours): 60.29 ± 1.08 pg/mL; Viability [% of control, mean±SD] ([3]; 2 days): 99.75±15.49 % of control; Viability [% of control, mean±SD] ([3]; 7 days): 104.01±1.11 % of control; Increase in the number of yellow wells compared to the reference level (S. typhimurium TA1535; 0.5 mM, +S9): 0.54; Increase in the number of yellow wells compared to the reference level (S. typhimurium TA1535; 0.5 mM, without S9): 1.04; Increase in the number of yellow wells compared to the reference level (S. typhimurium TA1535; 1.0 mM, +S9): 0.40; Increase in the number of yellow wells compared to the reference level (S. typhimurium TA1535; 1.0 mM, without S9): 0.59; Increase in the number of yellow wells compared to the reference level (S. typhimurium TA1535; 2.0 mM, +S9): 0.94; Increase in the number of yellow wells compared to the reference level (S. typhimurium TA1535; 2.0 mM, without S9): 0.45; Increase in the number of yellow wells compared to the reference level (S. typhimurium TA98; 0.5 mM, +S9): 0.42; Increase in the number of yellow wells compared to the reference level (S. typhimurium TA98; 0.5 mM, without S9): 0.27; Increase in the number of yellow wells compared to the reference level (S. typhimurium TA98; 1.0 mM, +S9): 0.42; Increase in the number of yellow wells compared to the reference level (S. typhimurium TA98; 1.0 mM, without S9): 0.54; Increase in the number of yellow wells compared to the reference level (S. typhimurium TA98; 2.0 mM, +S9): 0.63; Increase in the number of yellow wells compared to the reference level (S. typhimurium TA98; 2.0 mM, without S9): 0.80
4 | O=C(/C=C/c1ccc(Cl)cc1)NCCO [H-427/21, (2E)-3-(4-chlorophenyl)-N-(2-hydroxyethyl)prop-2-enamide] | 101.82±3.99 % of solvent control | 100.76±3.34 % of solvent control | 100.37±3.92 % of solvent control | 98.13±2.81 % of solvent control | 102.20±2.24 % of solvent control | 100.57±2.18 % of solvent control | 93.78±2.18 % of solvent control | 85.19±2.03 % of solvent control |  |  |  |  |  |  |  |  |  |  |  |  | 
